Among the data in patent publication US8486965B2, “Pyrrolo[2,3-b]pyridine derivative and use thereof for treatment of cancer” (Takeda Pharmaceutical Company Limited, priority 2009, dated 2013) are inhibition values, retold here.

The test system of the test is Hedgehog signal transduction system (Smo). The experiment in a line: Gli reporter luciferase assay in NIH-3T3/Gli reporter cells stimulated with mouse Shh-N end fragment. In kind it is cell-based. Particulars: NIH3T3; 1 μM compound; NIH-3T3/Gli reporter cells with mouse Shh-N end fragment culture supernatant, 48 hr; luciferase activity, control without compound as 100; read-out: inhibition rate (%) at 1 μM. The source says: Inhibition of the Hedgehog signal transduction system can be measured, for example, by quantifying a decrease in the expression level of a reporter gene connected to the downstream of the Gli binding site based on the fluorescence intensity according to the following Experimental Example 1. Alternatively, it can be measured by quantifying the expression of Gli-1 mRNA in a cell extract by quantitative PCR method and the like. A compound that inhibits Hedgehog signal targets Smo, which can be confirmed, for example, by binding fluorescence-labeled Cyclopamine and a test compound to cells expressing Smo, measuring the fluorescence level of the cell, and comparing the value with that without addition of a test compound to find a decrease.
Gli reporter plasmid was constructed by inserting 8×Gli-binding site and chicken δ-crystalline promoter into the upstream of luc+ of pGL3 (Promega).
prepared in reference to the base sequence described in GenBank accession No.; X02187, and chicken genome DNA (Clontech) as a template. PCR reaction was performed using Pfu Turbo (Stratagene) and following the attached protocol. The obtained 108 bp fragment was digested with restriction enzymes BglII and HindIII, and inserted into BglII-HindIII site of pGL3 to give plasmid pGL3/δ-cry promoter.
As 8× Gli-binding site, a sequence containing eight 9-bp Gli bound consensus sequences (GACCACCCA) described in Yoon et al., J. Biol. Chem., vol. 273, pages 3496-3501 (1998) was prepared from synthetic DNA. That is, two synthetic DNAs,
were heat treated at 95° C. for 2 minutes, and incubated at 37° C. for 1 hr for annealing to give a double stranded DNA of the above-mentioned two synthetic DNAs. The obtained double stranded DNA was digested with restriction enzymes BglII and KpnI, and the obtained DNA fragment was inserted into BglII-KpnI site of pGL3/δ-cry promoter to construct plasmid pGL3/δ-cry promoter, 8× Gli binding site, i.e., Gli reporter plasmid. 2. Construction of Plasmid for Expression of Mouse Shh-N End Fragment
As a material for construction of plasmid for Shh-N end fragment expression, mouse Shh cDNA was cloned at first.
The mouse Shh cDNA was cloned by Nested PCR method using mouse 11-day fetus cDNA (Clontech) as a template. The primer sequence was prepared in reference to the base sequence described in GenBank accession No.; NM_009170.
Using the mouse Shh cDNA sequence obtained as mentioned above as a template, a partial cDNA sequence wherein stop codon (TGA) was added to 3′-terminal of cDNA sequence encoding 1st to 198th amino acid sequence of mouse Shh was obtained by PCR method. As the primer set,
In the manner mentioned above, a plasmid for mouse Shh-N end fragment expression, pcDNA3.1/mShh-N, was constructed.
HEK293 cells were grown in D-MEM medium (Invitrogen) containing 10% fetal bovine serum in a 10 cm dish and pcDNA3.1/mShh-N was introduced into the cells using FuGENE6 (Roche Applied Science). Thereafter, the HEK293 cells were cultured in a carbon dioxide gas incubator at 37° C. for 24 hours, and the medium was exchanged with D-MEM medium (Invitrogen) containing 2% fetal bovine serum. After culturing for 48 hr, culture supernatant containing recombinant type mouse Shh-N end fragment was obtained by filtration using a filter ([…]).
Using D-MEM (Invitrogen) containing 10% fetal bovine serum, expression plasmid pcDNA3:1 and Gli reporter plasmid (pGL3/δ-cry promoter, 8× Gli binding site) produced by the method of Experimental Example 1 were introduced into NIH-3T3 cells grown in a 10 cm dish by the use of FuGENE6 (Roche Applied Science).
After culture for 24 hr, the cells were recovered, suspended in D-MEM medium containing 10% fetal bovine serum and supplemented with Geneticin (Life Technologies Oriental, Inc.) to a final concentration of 500 μg/ml, diluted to 10^4 cells/ml, plated on a 96 well plate, and cultured in a carbon dioxide gas incubator at 37° C. to give Geneticin resistant transformed cell line. […]
In general, inhibition refers to the share of the control response that was lost under treatment. As to `CCc1nc2sc(C(=O)NC3CCN(C(=O)CO)CC3)c(OCC(F)(F)F)c2cc1NC(=O)c1ccc(F)cc1` [Example 58, 6-ethyl-5-{[(4-fluorophenyl)carbonyl]amino}-N-[1-(hydroxyacetyl)piperidin-4-yl]-3-(2,2,2-trifluoroethoxy)thieno[2,3-b]pyridine-2-carboxamide], the inhibition at 1 µM came to 97%.
Next, `CCc1cc2sc(C(=O)NC3CCN(C(=O)CO)CC3)c(OCC(F)(F)F)c2cc1NC(=O)c1ccccc1` [Example 149, 6-ethyl-N-[1-(hydroxyacetyl)piperidin-4-yl]-5-[(phenylcarbonyl)amino]-3-(2,2,2-trifluoroethoxy)-1-benzothiophene-2-carboxamide]: 85%; `CCc1cc2c(nc1NC(=O)c1ccccc1)c(OC(C)C)c(C(=O)NC1CCN(C(=O)CO)CC1)n2C` [Example 130, 6-ethyl-N-[1-(hydroxyacetyl)piperidin-4-yl]-1-methyl-3-(1-methylethoxy)-5-[(phenylcarbonyl)amino]-1H-pyrrolo[3,2-b]pyridine-2-carboxamide]: 84%.
Next, `CCc1nc2c(cc1NC(=O)c1cccs1)c(OC(C)C)c(C(=O)NC1CCN(C(=O)CO)CC1)n2C` [Example 51, 6-ethyl-N-[1-(hydroxyacetyl)piperidin-4-yl]-1-methyl-3-(1-methylethoxy)-5-[(thiophen-2-ylcarbonyl)amino]-1H-pyrrolo[2,3-b]pyridine-2-carboxamide]: 94%; `CCc1cc2sc(C(=O)NC3CCN(C(=O)CO)CC3)c(OC(C)C)c2cc1NC(=O)c1ccc(F)cc1` [Example 154, 6-ethyl-5-{[(4-fluorophenyl)carbonyl]amino}-N-[1-(hydroxyacetyl)piperidin-4-yl]-3-(1-methylethoxy)-1-benzothiophene-2-carboxamide]: 97%; `CCc1nc2c(cc1NC(=O)c1ccccc1)c(OCC(F)(F)F)c(C(=O)NC1CCS(=O)(=O)CC1)n2C` [Example 40, N-(1,1-dioxidotetrahydro-2H-thiopyran-4-yl)-6-ethyl-1-methyl-5-[(phenylcarbonyl)amino]-3-(2,2,2-trifluoroethoxy)-1H-pyrrolo[2,3-b]pyridine-2-carboxamide]: 97%.
Next, `Cc1nc2c(nc1-c1ccccc1)c(OC(C)C)c(C(=O)NC1CCN(C(=O)CO)CC1)n2C` [Example 143, N-[1-(hydroxyacetyl)piperidin-4-yl]-3,5-dimethyl-7-(1-methylethoxy)-2-phenyl-5H-pyrrolo[2,3-b]pyrazine-6-carboxamide]: 96%.
For the compound `CCc1cc2sc(C(=O)NC3CCN(C(=O)CO)CC3)c(OC(C)C)c2cc1NC(=O)c1ccccc1` [Example 151, 6-ethyl-N-[1-(hydroxyacetyl)piperidin-4-yl]-3-(1-methylethoxy)-5-[(phenylcarbonyl)amino]-1-benzothiophene-2-carboxamide], the inhibition at 1 µM is 98%.
Consider `CCc1nc2c(cc1NC(=O)c1cscn1)c(OCC(F)(F)F)c(C(=O)NC1CCN(C(=O)CO)CC1)n2C` [Example 56, 6-ethyl-N-[1-(hydroxyacetyl)piperidin-4-yl]-1-methyl-5-[(1,3-thiazol-4-ylcarbonyl)amino]-3-(2,2,2-trifluoroethoxy)-1H-pyrrolo[2,3-b]pyridine-2-carboxamide], for which the inhibition at 1 µM stood at 97%.
The value for `CCc1cc2c(cc1NC(=O)c1ccccc1)c(OCC(F)(F)F)c(C(=O)NC1CCN(C(=O)CO)CC1)n2C` [Example 146, 6-ethyl-N-[1-(hydroxyacetyl)piperidin-4-yl]-1-methyl-5-[(phenylcarbonyl)amino]-3-(2,2,2-trifluoroethoxy)-1H-indole-2-carboxamide] was 90%; that for `Cc1nc2c(nc1NC(=O)c1ccccc1)c(OCC(F)(F)F)c(C(=O)NC1CCN(C(=O)CO)CC1)n2C` [Example 145, N-[1-(hydroxyacetyl)piperidin-4-yl]-3,5-dimethyl-2-[(phenylcarbonyl)amino]-7-(2,2,2-trifluoroethoxy)-5H-pyrrolo[2,3-b]pyrazine-6-carboxamide] was 98%; that for `CCc1cc2c(nc1NC(=O)c1cccs1)c(OC(C)C)c(C(=O)NC1CCN(C(=O)CO)CC1)n2C` [Example 133, 6-ethyl-N-[1-(hydroxyacetyl)piperidin-4-yl]-1-methyl-3-(1-methylethoxy)-5-[(thiophen-2-ylcarbonyl)amino]-1H-pyrrolo[3,2-b]pyridine-2-carboxamide] was 90%.
Next, `CCc1cc2c(nc1-c1ccccc1)c(OCC(F)(F)F)c(C(=O)NC1CCN(C(=O)CO)CC1)n2C` [Example 128, 6-ethyl-N-[1-(hydroxyacetyl)piperidin-4-yl]-1-methyl-5-phenyl-3-(2,2,2-trifluoroethoxy)-1H-pyrrolo[3,2-b]pyridine-2-carboxamide]: 94%; `CCc1nc2c(cc1NC(=O)c1ccc(OC)cc1)c(OCC(F)(F)F)c(C(=O)NC1CCN(C(=O)CO)CC1)n2C` [Example 34, 6-ethyl-N-[1-(hydroxyacetyl)piperidin-4-yl]-5-{[(4-methoxyphenyl)carbonyl]amino}-1-methyl-3-(2,2,2-trifluoroethoxy)-1H-pyrrolo[2,3-b]pyridine-2-carboxamide]: 93%.
The value for `CCc1cc2sc(C(=O)NC3CCN(C(=O)CO)CC3)c(OC(C)C)c2cc1NC(=O)c1cccs1` [Example 153, 6-ethyl-N-[1-(hydroxyacetyl)piperidin-4-yl]-3-(1-methylethoxy)-5-[(thiophen-2-ylcarbonyl)amino]-1-benzothiophene-2-carboxamide] was 97%; that for `CCc1cc2sc(C(=O)NC3CCN(C(=O)CO)CC3)c(OCC(F)(F)F)c2cc1NC(=O)c1ccsc1` [Example 150, 6-ethyl-N-[1-(hydroxyacetyl)piperidin-4-yl]-5-[(thiophen-3-ylcarbonyl)amino]-3-(2,2,2-trifluoroethoxy)-1-benzothiophene-2-carboxamide] was 89%.
As to `CCc1cc2c(nc1NC(=O)c1ccc(F)cc1)c(OC(C)C)c(C(=O)NC1CCN(C(=O)CO)CC1)n2C` [Example 167, 6-ethyl-5-{[(4-fluorophenyl)carbonyl]amino}-N-[1-(hydroxyacetyl)piperidin-4-yl]-1-methyl-3-(1-methylethoxy)-1H-pyrrolo[3,2-b]pyridine-2-carboxamide], the inhibition at 1 µM worked out at 99%.
On to `CCc1nc2c(cc1NC(=O)c1ccccc1)c(OCC(F)(F)F)c(C(=O)NC1CC[S+]([O-])CC1)n2C` (centres unmarked) [Example 41, 6-ethyl-1-methyl-N-(1-oxidotetrahydro-2H-thiopyran-4-yl)-5-[(phenylcarbonyl)amino]-3-(2,2,2-trifluoroethoxy)-1H-pyrrolo[2,3-b]pyridine-2-carboxamide], for which the inhibition at 1 µM came out at 96%.
The value for `CCc1nc2c(cc1NC(=O)c1ccc(Cl)cc1)c(OCC(F)(F)F)c(C(=O)NC1CCN(C(=O)CO)CC1)n2C` [Example 32, 5-{[(4-chlorophenyl)carbonyl]amino}-6-ethyl-N-[1-(hydroxyacetyl)piperidin-4-yl]-1-methyl-3-(2,2,2-trifluoroethoxy)-1H-pyrrolo[2,3-b]pyridine-2-carboxamide] was 98%; that for `CCc1nc2c(nc1NC(=O)c1ccc(F)cc1)c(OC(C)C)c(C(=O)NC1CCN(C(=O)CO)CC1)n2C` [Example 162, 3-ethyl-2-{[(4-fluorophenyl)carbonyl]amino}-N-[1-(hydroxyacetyl)piperidin-4-yl]-5-methyl-7-(1-methylethoxy)-5H-pyrrolo[2,3-b]pyrazine-6-carboxamide] was 100%.
